By IC50 is commonly meant the concentration at which inhibition is half-maximal. As a reminder, the AUC is the area under the concentration-time curve, a measure of exposure. Lower therefore signals less exposure. Broadly, the Cmax is the highest concentration seen after dosing. Broadly, the MRT is the average time that molecules of a dose stay in the body. Usually Tmax stands for the time at which the peak concentration occurs. What is called half-life is the time needed for the level to fall by half in the phase considered. The low end stands for rapid decline, the high end for slow decline.

We go through 3 compounds from PMC7037682, “Herb–Drug Interaction of Red Ginseng Extract and Ginsenoside Rc with Valsartan in Rats” (Molecules, 2020).

One series concerns the target T1, OATP1B3 (Homo sapiens, UniProt Q9NPD5).
T1 sequence (Q9NPD5 1-702): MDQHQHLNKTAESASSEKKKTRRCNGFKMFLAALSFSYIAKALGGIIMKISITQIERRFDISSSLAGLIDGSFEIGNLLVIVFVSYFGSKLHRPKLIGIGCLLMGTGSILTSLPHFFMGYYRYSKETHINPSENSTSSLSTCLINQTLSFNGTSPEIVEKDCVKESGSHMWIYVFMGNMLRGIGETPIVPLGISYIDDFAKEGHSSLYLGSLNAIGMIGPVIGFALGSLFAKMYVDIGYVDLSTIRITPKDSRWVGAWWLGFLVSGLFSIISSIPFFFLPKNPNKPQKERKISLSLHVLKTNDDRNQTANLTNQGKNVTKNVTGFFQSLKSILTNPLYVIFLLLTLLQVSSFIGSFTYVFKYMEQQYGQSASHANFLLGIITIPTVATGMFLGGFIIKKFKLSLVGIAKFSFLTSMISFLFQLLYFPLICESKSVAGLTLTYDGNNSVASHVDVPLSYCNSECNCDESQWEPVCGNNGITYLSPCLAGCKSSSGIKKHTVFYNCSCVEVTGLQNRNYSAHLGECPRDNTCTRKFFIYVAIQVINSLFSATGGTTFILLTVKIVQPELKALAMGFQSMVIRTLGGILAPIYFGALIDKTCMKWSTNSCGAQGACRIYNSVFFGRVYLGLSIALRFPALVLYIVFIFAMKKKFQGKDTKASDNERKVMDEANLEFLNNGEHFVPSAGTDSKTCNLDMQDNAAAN
The series is described as follows: Inhibition of OATP1B3-mediated [3H]estradiol-17β-D-glucuronide uptake in HEK293-OATP1B3 cells. How it is done:
(§1) HEK293 cells overexpressing the OCT1, OCT2, OAT1, OAT3, OATP1B1, and OATP1B3 transporters (HEK293-OCT1, -OCT2, -OAT1, -OAT3, -OATP1B1, and -OATP1B3, respectively) and HEK293-mock cells (Corning Life Sciences; Woburn, MA, USA) were used and characterized as previously described.
(§2) HEK293 cells overexpressing drug transporters and HEK293-mock cells were seeded in poly-D-lysine-coated 96-well plates at a density of 10^5 cells/well and were cultured in DMEM supplemented with 10% FBS, 5 mM non-essential amino acids, and 2 mM sodium butyrate in a humidified atmosphere with 8% CO2 at 37 °C.
(§3) To examine the effects of ginsenosides and typical inhibitors on transporter activity, aliquots (100 μL) of HBSS containing the probe substrate and ginsenosides or typical inhibitors were added to the cells after aspirating pre-incubated HBSS. The concentrations and probe substrates were as follows: 0.1 μM [^3H]MPP^+ for OCT1 and OCT2, 0.1 μM [^3H]PAH for OAT1, 0.1 μM [^3H]ES for OAT3 and OATP1B1, and 0.1 μM [^3H]EG for OATP1B3. […] Then the uptake of probe substrates into HEK293-mock cells and HEK293-OCT1, -OCT2, -OAT1, -OAT3, -OATP1B1, and -OATP1B3 cells in the presence and absence of typical inhibitor or each ginsenoside with previously described concentration range was measured for 5 min. Immediately after placing the plates on ice, the cells were washed three times with 100 μL of ice-cold HBSS, followed by lysing with 50 μL of 10% SDS solution and mixing with 150 μL of Optiphase cocktail solution (Perkin Elmer Inc., Boston, MA, USA). The radioactivity of the probe substrates in the cells was determined using a liquid scintillation counter.
(§4) In the inhibition studies, the uptake rate of substrate by HEK293 cells overexpressing the respective transporters was used as the control (100%) and the uptake rate of substrates in the presence of typical inhibitors or ginsenosides expressed as a percentage of the control. The inhibition data were fitted to an inhibitory effect model using Sigma plot (version 10.0; Systat Software Inc., San Jose, CA, USA). IC50 value indicated the half-maximal inhibitory concentration of the inhibitor.

Series [1] in a line: Plasma pharmacokinetics of ginsenosides in rats after 1-week repeated RGE. Conditions: for detection in rat plasma: LC-MS/MS. How it is done: The rats were randomly divided into the control and RGE groups. The RGE group received a RGE suspension (1.5 g/mL/kg/day, in distilled water) for 7 days via oral gavage. The control group received distilled water for 7 days via oral gavage. After 1 h following the last RGE treatment, valsartan was injected intravenously to both groups via the tail vein at 1 mg/mL/kg (dissolved in DMSO: saline = 2:8, v/v). […] After centrifugation of the blood samples at 16,000× g for 10 min, aliquots (50 μL each) of plasma samples were stored at −80 °C until the analysis of ginsenosides and valsartan.
The residue was reconstituted with 100 μL of 70% methanol consisting of 0.1% formic acid. An aliquot (20 μL) from the sample was injected into the LC-MS/MS system.
After freezing the aqueous layer at −80 °C for 2 h, the upper organic layer was transferred to a clean tube and evaporated to dryness. […] An aliquot (20 μL) from the sample was injected into the LC-MS/MS system. The samples were eluted through an Omega Polar C18 column (2.1 mm × 100 mm, 3 µm particle size) (Phenomenex, Torrance, CA, USA) using a mobile phase consisting of 0.1% formic acid in water: 0.1% formic acid in methanol (15:85, v/v) at a flow rate of 0.2 mL/min.
Pharmacokinetic parameters were calculated from plasma concentration-time profile using non-compartment analysis of WinNonlin (version 5.1; Pharsights, Cary, NC, USA). The statistical significance was assessed by t-test using Statistical Package for the Social Sciences (version 24.0; SPSS Inc., Chicago, IL, USA).

The next series deals with T2, OCT2 (Homo sapiens, UniProt O15244).
T2 sequence (O15244 1-555): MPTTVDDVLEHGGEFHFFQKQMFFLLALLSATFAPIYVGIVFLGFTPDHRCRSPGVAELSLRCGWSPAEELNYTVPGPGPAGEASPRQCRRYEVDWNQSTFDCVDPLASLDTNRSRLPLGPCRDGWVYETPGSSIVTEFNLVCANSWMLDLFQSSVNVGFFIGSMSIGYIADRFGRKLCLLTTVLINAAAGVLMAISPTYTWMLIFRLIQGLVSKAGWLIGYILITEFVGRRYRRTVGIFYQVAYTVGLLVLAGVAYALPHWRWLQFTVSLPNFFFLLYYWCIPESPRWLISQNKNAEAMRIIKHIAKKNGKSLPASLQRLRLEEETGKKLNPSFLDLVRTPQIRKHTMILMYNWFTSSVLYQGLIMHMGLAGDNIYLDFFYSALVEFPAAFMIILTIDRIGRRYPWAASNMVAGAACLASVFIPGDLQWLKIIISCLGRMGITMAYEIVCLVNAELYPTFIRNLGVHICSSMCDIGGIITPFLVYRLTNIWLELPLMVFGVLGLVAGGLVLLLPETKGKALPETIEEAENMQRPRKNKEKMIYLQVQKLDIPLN
Nature of the series: Inhibition of OCT2-mediated [3H]MPP+ uptake in HEK293-OCT2 cells. How it is done: as §1, §2, §3, §4

Where [2] appears, read: after RGE 1.5 g/kg/day po for 1 week.
[3] abbreviates: rat plasma, after RGE 1.5 g/kg/day po for 1 week.

Read-outs that look alike come from different tables or passages of the source.

Take `CC(C)=CCC[C@](C)(O)[C@H]1CC[C@]2(C)[C@@H]1[C@H](O)C[C@@H]1[C@@]3(C)CC[C@H](O)C(C)(C)[C@@H]3[C@@H](O)C[C@]12C` [PPT, protopanaxatriol]: on OATP1B3 (read-out: IC50 OATP1B3, HEK293-OATP1B3, 0.1 μM [3H]EG uptake, 5 min), the IC50 came out at 20.3 µM. Besides, the “detection in rat plasma” value in series [1] (setting [2]) is “detected”. Besides, in series [1] (rat plasma, 0 to 48 h, after RGE 1.5 g/kg/day po for 1 week), the area under the curve (AUC) came out at 429.91 ± 105.75 ng·h/mL. In series [1] (setting [3]), the peak concentration (Cmax) is on record as 16.97 ± 8.99 ng/mL, the mean residence time (MRT) worked out at 23.12 ± 2.26 h, the T1/2 turned out to be 46.38 ± 13.27 h and the Tmax is reported as 16.50 ± 12.48 h. For the same compound, the “maximum plasma concentration (molar)” value in series [1] (rat plasma, after RGE 1.5 g/kg/day po for 7 days) turned out to be 38.5 nM. On OCT2 (read-out: IC50 OCT2, HEK293-OCT2, 0.1 μM [3H]MPP+ uptake, 5 min), the IC50 is greater than 100 µM.
For `CC(C)=CCC[C@](C)(O[C@@H]1O[C@H](CO)[C@@H](O)[C@H](O)[C@H]1O)[C@H]1CC[C@]2(C)[C@@H]1[C@H](O)C[C@@H]1[C@@]3(C)CC[C@H](O)C(C)(C)[C@@H]3[C@@H](O[C@@H]3O[C@H](CO)[C@@H](O)[C@H](O)[C@H]3O[C@@H]3O[C@@H](C)[C@H](O)[C@@H](O)[C@H]3O)C[C@]12C` [Re, ginsenoside Re], the half-maximal inhibitory concentration (IC50) at OATP1B3 and at OCT2 was greater than 100 µM in each case. Also, at OATP1B3 (HEK293-OATP1B3, 0.1 μM [3H]EG uptake, 5 min), the “IC50 OATP1B3” value was “did not inhibit”. For the same compound, in series [1] (setting [2]), the “detection in rat plasma” value was “not detected”.
`CC(C)=CCC[C@](C)(O[C@@H]1O[C@H](CO[C@@H]2O[C@H](CO)[C@@H](O)[C@H](O)[C@H]2O)[C@@H](O)[C@H](O)[C@H]1O)[C@H]1CC[C@]2(C)[C@@H]1[C@H](O)C[C@@H]1[C@@]3(C)CC[C@H](O[C@@H]4O[C@H](CO)[C@@H](O)[C@H](O)[C@H]4O[C@@H]4O[C@H](CO)[C@@H](O)[C@H](O)[C@H]4O)C(C)(C)[C@@H]3CC[C@]12C` [Rb1, ginsenoside Rb1] returned an IC50 on OATP1B3 of 2.28 µM. Also, in series [1] (rat, plasma, po, 1.5 g/kg/day), the AUC stood at 455 ± 111 ng·h/mL, the highest concentration (Cmax) worked out at 17.8 ± 2.34 ng/mL, the MRT is 17.1 ± 2.09 h and the Tmax was 3.33 ± 1.15 h. In series [1] (rat, plasma, po, 1.5 g/kg/day), this compound showed a half-life of 16.9 ± 5.81 h. On OCT2, the concentration for half-maximal inhibition (IC50) is greater than 100 µM.
